The values below come from PubChem BioAssay (NCI).

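All cell lines were grown in 96-well plates and treated with compound for 48 hours. The concentration for 50% growth inhibition is given as GI50. Definition used: TGI = concentration required for complete inhibition of growth.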 Where only a bound is given, the exact number is not on record here.

Among the test systems are DLD-1 colon; SNB-78 CNS; HOP-18 NSCLC; DMS 114 small cell lung; M19-MEL melanoma; XF 498 CNS; RXF-631 renal; MDA-N; BT-549 breast.
What all share (assay): NCI anticancer screen, dose series, 48 h

For `CC(=O)Nc1ccc(C2[C@H]3C(=O)N(c4ccc(Cc5ccc(N6C(=O)[C@@H]7ON(c8ccccc8)C(c8ccc(NC(C)=O)cc8)[C@@H]7C6=O)cc5)cc4)C(=O)[C@H]3ON2c2ccccc2)cc1` (some centres undefined), the TGI in the assay on DLD-1 colon, in the assay on SNB-78 CNS, in the assay on HOP-18 NSCLC, in the assay on DMS 114 small cell lung and in the assay with M19-MEL melanoma was over 100 µM each time.

Regarding `COC(=O)C1=C(O)C(O)=C(C(=O)OC)C1`, the TGI in the assay on DLD-1 colon, with SNB-78 CNS, with HOP-18 NSCLC, in the assay with DMS 114 small cell lung and with M19-MEL melanoma was over 100 µM in each case.

Turning to `O=S1(=O)C[C@@H](O)[C@H](O)CS1`, the TGI with DLD-1 colon, in the assay on SNB-78 CNS, with HOP-18 NSCLC, in the assay on DMS 114 small cell lung, with M19-MEL melanoma and in the assay on XF 498 CNS was over 100 µM in each case.

In the case of `ON=C1CCC(c2ccccc2)CC1` (centres undefined), the TGI in the assay with DLD-1 colon, with SNB-78 CNS, in the assay on HOP-18 NSCLC, with DMS 114 small cell lung, in the assay on M19-MEL melanoma and in the assay with XF 498 CNS was over 100 µM each time.

Consider `CCOC(=O)c1ccc(N2C(=O)/C(=C\OC)c3ccccc3C2=O)cc1`, for which the TGI with SNB-78 CNS, with DMS 114 small cell lung and with M19-MEL melanoma was over 100 µM throughout.

As for `CC(C(=O)Oc1ccc2ccccc2c1-c1c(O)ccc2ccccc12)c1ccccc1` (centres undefined), the TGI came out at 33.7 µM with RXF-631 renal; 33.9 µM with SNB-78 CNS; 29.6 µM in the assay with DMS 114 small cell lung; 30.6 µM in the assay with M19-MEL melanoma; 27.3 µM in the assay with XF 498 CNS.

As to `CC(C)(O)C1OCC(C2CCC3(C)C4=CCC5C(C)(C)C(O)CCC5(C)C4CCC23C)CC1O` (centres undefined), the TGI in the assay on MDA-N is 41.8 µM; in the assay with BT-549 breast, 24.8 µM.

Consider `O=C(c1ccccc1)c1c(C(=O)c2ccccc2)c(-c2ccccc2)c2c(-c3ccccc3)sc(-c3ccccc3)c2c1-c1ccccc1`, for which the TGI in the assay with DLD-1 colon, with RXF-631 renal, in the assay on SNB-78 CNS, in the assay with DMS 114 small cell lung, in the assay on M19-MEL melanoma and with XF 498 CNS was over 100 µM in each case.

For the compound `Cc1c2cc[nH]c(=O)c2cc2c(=O)c3cnccc3[nH]c12`, the TGI in the assay with DLD-1 colon, with SNB-78 CNS, with HOP-18 NSCLC, in the assay with DMS 114 small cell lung and with M19-MEL melanoma was over 100 µM in each case.

For `CN(c1ccccc1)C(c1ccccc1)C(O)c1ccccc1` (centres undefined), the TGI with DLD-1 colon was 47.5 µM; in the assay with RXF-631 renal, 43.2 µM; in the assay with SNB-78 CNS, 59.6 µM; in the assay with HOP-18 NSCLC, 33.2 µM; with DMS 114 small cell lung, 47.5 µM; in the assay with M19-MEL melanoma it was 42.4 µM.

With `Cn1c(=O)c2[nH]c(CS(=O)(=O)Cc3nc4c([nH]3)c(=O)n(C)c(=O)n4C)nc2n(C)c1=O`, the TGI with MDA-N and in the assay on BT-549 breast was over 100 µM throughout.

As for `O=c1cc2ccccc2nn1-c1ccccc1Cl`, the TGI with DLD-1 colon is over 100 µM; in the assay with SNB-78 CNS, over 100 µM; with HOP-18 NSCLC it was over 100 µM; in the assay with DMS 114 small cell lung, over 100 µM; in the assay with M19-MEL melanoma, over 100 µM; with XF 498 CNS it was 77.5 µM.

On to `O=C1C(=O)N(c2ccc(Cl)c(Cl)c2)C(=O)C(=O)C1c1nc2ccccc2o1`, for which the TGI in the assay on DLD-1 colon, in the assay with RXF-631 renal, in the assay with SNB-78 CNS, with M19-MEL melanoma and in the assay with XF 498 CNS was over 100 µM in each case.

Consider `Cc1cc(C)nc(Nc2nc3ccc([N+](=O)[O-])cc3[nH]2)n1`, for which the TGI in the assay with DLD-1 colon, in the assay with SNB-78 CNS, in the assay with DMS 114 small cell lung and with XF 498 CNS was over 100 µM throughout.

On to `COC(=O)C(Nc1ccc(OC)cc1)c1ccccc1` (centres undefined), for which the TGI in the assay with MDA-N is over 100 µM.

Take `CS(=O)c1ccc(COP(N)(=O)N(CCCl)CCCl)cc1` (centres undefined): the TGI with DLD-1 colon, with SNB-78 CNS, in the assay with DMS 114 small cell lung, in the assay on M19-MEL melanoma and with XF 498 CNS was over 100 µM in each case.

For the compound `COC(=O)c1c(CC#N)cccc1CC#N`, the TGI in the assay on DLD-1 colon, with RXF-631 renal, in the assay on DMS 114 small cell lung, in the assay on M19-MEL melanoma and in the assay on XF 498 CNS was over 100 µM in each case.

As for `Nc1c(-c2nc3ccccc3[nH]2)sc(=S)n1-c1ccccc1`, the TGI with DLD-1 colon, in the assay on RXF-631 renal, in the assay with SNB-78 CNS, in the assay with DMS 114 small cell lung and with M19-MEL melanoma was over 100 µM each time.

As for `COc1c(O)ccc2c1CN1CCc3cc4c(cc3C1C2)OCO4` (centres undefined), the TGI in the assay with MDA-N is over 80.8 µM; in the assay with BT-549 breast it was over 100 µM.

Consider `CC(=O)N1c2ccccc2Sc2cc(C(O)(C(F)(F)F)C(F)(F)F)ccc21`, for which the TGI in the assay on MDA-N and in the assay on BT-549 breast was over 10 µM each time.

As for `C[C@H]1CCC/C=C/[C@@H]2C[C@H](O)C[C@H]2[C@H](O)[C@@H](S(=O)CCN(C)C)CC(=O)O1` (some centres undefined), in the assay on MDA-N, the GI50 was 0.228 µM and the TGI is over 100 µM. For the same compound, the GI50 with BT-549 breast was 0.202 µM.

`CC1(C)OCC(CO)(Nc2nc(N3CC3)nc(N3CC3)n2)CO1`: the TGI in the assay with DLD-1 colon is over 93 µM; in the assay on MDA-N it was 27.9 µM; in the assay on SNB-78 CNS it was over 100 µM; in the assay on HOP-18 NSCLC it was over 87.6 µM; in the assay on BT-549 breast, 93.5 µM; in the assay with DMS 114 small cell lung, 27.2 µM. Besides, the TGI in the assay on M19-MEL melanoma was 34.4 µM; in the assay with XF 498 CNS it was 29.3 µM.

As for `CC1=Cc2cc3[n-]c(cc4nc(cc5[n-]c(cc1n2)cc5C)C(C)=C4CCC(=O)O)c(CCC(=O)O)c3C.[Pd+2]`, the GI50 in the assay on DLD-1 colon was 14.5 µM; in the assay on MDA-N, over 100 µM; in the assay with SNB-78 CNS, 6.17 µM; with HOP-18 NSCLC, 15.8 µM; in the assay on BT-549 breast, 4.89 µM; with DMS 114 small cell lung, 3.18 µM. In addition, the GI50 in the assay with M19-MEL melanoma is 3.64 µM; with XF 498 CNS it was 14.2 µM. Moreover, the TGI was 35.8 µM with DLD-1 colon; over 100 µM in the assay with MDA-N; 28.7 µM in the assay with SNB-78 CNS; 30.6 µM in the assay with HOP-18 NSCLC; over 100 µM with BT-549 breast; 11.2 µM in the assay with DMS 114 small cell lung. In addition, the TGI with M19-MEL melanoma turned out to be 20.5 µM; in the assay with XF 498 CNS, 31.5 µM.

On to `N.N.NC(CS)C(=O)[O-].NC(CS)C(=O)[O-].[Pt+4]` (centres undefined), for which the GI50 with DLD-1 colon, with SNB-78 CNS and in the assay with HOP-18 NSCLC was over 50 µM throughout. Also, the TGI in the assay with DLD-1 colon, with SNB-78 CNS and in the assay on HOP-18 NSCLC was over 50 µM each time.

Turning to `O=C1OC2(c3ccccc3Oc3ccccc32)c2ccccc21`, the TGI with DLD-1 colon, in the assay on SNB-78 CNS, in the assay with HOP-18 NSCLC, with DMS 114 small cell lung and with M19-MEL melanoma was over 100 µM in each case.

For the compound `C=C1CC[C@@H]2C(C)(C)CCC[C@@]2(C)[C@@H]1Cc1cc(O)ccc1O`, the TGI came out at 18.1 µM in the assay with DLD-1 colon; 5.25 µM in the assay on SNB-78 CNS; 30 µM in the assay with HOP-18 NSCLC; 4.1 µM in the assay with DMS 114 small cell lung; 11 µM in the assay with M19-MEL melanoma.

For `COC(=O)c1nc(NC#N)[nH]c(=O)c1C`, the TGI in the assay on DLD-1 colon, in the assay with RXF-631 renal, in the assay on SNB-78 CNS, in the assay with HOP-18 NSCLC, with DMS 114 small cell lung and with M19-MEL melanoma was over 100 µM each time.

With `CCOC(=O)C(=O)Nc1c(N(CC)CC)n2ccccc2nc1=O`, the TGI in the assay on DLD-1 colon, with RXF-631 renal, with SNB-78 CNS, in the assay on DMS 114 small cell lung, in the assay on M19-MEL melanoma and in the assay on XF 498 CNS was over 100 µM in each case.

In the case of `CC(=O)OC(C)(C)/C=C/C(=O)[C@](C)(O)[C@H]1[C@H](O)C[C@@]2(C)[C@@H]3CC=C4[C@@H](C[C@H](O)C(=O)C4(C)C)[C@]3(C)C(=O)C[C@]12C`, the TGI with MDA-N is 2.39 µM; in the assay with BT-549 breast it was 0.0201 µM.

`CC(=O)/C=C/c1ccc(C2CC(C)=Nc3c(ccc4c3C(=O)c3ccccc3C4=O)N2)cc1` (centres undefined): the TGI with DLD-1 colon, in the assay on SNB-78 CNS, in the assay on HOP-18 NSCLC, in the assay on DMS 114 small cell lung, with M19-MEL melanoma and in the assay with XF 498 CNS was over 100 µM in each case.

Take `Cc1cc2c(F)c(Oc3ncnn4cc(OC[C@@H](C)OC(=O)[C@H](C)N)c(C)c34)ccc2[nH]1`: in the assay on BT-549 breast, the GI50 was 8.43 µM and the TGI was 22 µM.

As for `Nc1ccccc1C#C/C=C\C#Cc1ccc(Cl)cc1Cl`, in the assay on BT-549 breast, the GI50 was 12.4 µM and the TGI was found to be 28.7 µM.

`C[C@]12CC[C@@H]3c4ccc(O)cc4CC[C@H]3[C@@H]1CC[C@@H]2NS(=O)(=O)Cc1ccc(Cl)cc1`: in the assay on BT-549 breast, the GI50 is 2.35 µM and the TGI turned out to be 5.74 µM.

On to `CC1(C)N=C(N)N=C(N)N1c1cc(Cl)ccc1Cl`, for which, in the assay on BT-549 breast, the GI50 is over 100 µM and the TGI was over 100 µM.

For the compound `COc1ccc2[nH]c(Cl)c(/C=C3/C(=O)N(C)c4ccccc43)c2c1`, in the assay on BT-549 breast, the GI50 was over 100 µM and the TGI is over 100 µM.
